According to the supplement of paper PMC10307832:

Assays:
Assay in all cases: relative viability (nuclei count vs DMSO), 5 days (fraction); higher = more cells survive
[1] = compound: CC(C)=CC[C@@H](O)C1=CC(=O)c2c(O)ccc(O)c2C1=O [Shikonin] + O=C(c1cc(Cc2n[nH]c(=O)c3ccccc23)ccc1F)N1CCN(C(=O)C2CC2)CC1 [Olaparib] (partner 8 µM)
Procedure, shortened: (§1)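 Medians of duplicate plates are given as relative viability. That measure is the nuclei count in treated wells divided by the count in vehicle wells. Counts were taken on 4× images of lung cancer cell lines in 1536-well plates, 5 days after pin-tool dosing the day after seeding with one drug alone or a fixed anchor-drug dose plus five library-drug doses (not always all listed) in √10 steps.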

[2] = compound: CC(C)=CC[C@@H](O)C1=CC(=O)c2c(O)ccc(O)c2C1=O [Shikonin] + C[C@]1(O)C[C@@H](c2nc(-c3ccc4ccc(-c5ccccc5)nc4c3)c3c(N)nccn32)C1 [Linsitinib] (partner 1 µM)
Procedure, shortened: as §1

[3] = compound: CC(C)=CC[C@@H](O)C1=CC(=O)c2c(O)ccc(O)c2C1=O [Shikonin] + CS(=O)(=O)CCNCc1ccc(-c2ccc3ncnc(Nc4ccc(OCc5cccc(F)c5)c(Cl)c4)c3c2)o1 [Lapatinib] (partner 2 µM)
Procedure, shortened: as §1

[4] = compound: CC(C)=CC[C@@H](O)C1=CC(=O)c2c(O)ccc(O)c2C1=O [Shikonin] + CC(C)C[C@H](NC(=O)[C@H](Cc1ccccc1)NC(=O)c1cnccn1)B(O)O [Bortezomib] (partner 0.002 µM)
Procedure, shortened: as §1

[5] = compound: CC(C)=CC[C@@H](O)C1=CC(=O)c2c(O)ccc(O)c2C1=O [Shikonin] + Cc1cc(Nc2cc(N3CCN(C)CC3)nc(Sc3ccc(NC(=O)C4CC4)cc3)n2)n[nH]1 [Tozasertib] (partner 0.1 µM)
Procedure, shortened: as §1

Row | Cell Line | relative viability ([1]; first compound 0.01 µM) | relative viability ([1]; first compound 0.1 µM) | relative viability ([1]; first compound 0.3162 µM) | relative viability ([1]; first compound 1 µM) | relative viability ([2]; first compound 0.01 µM) | relative viability ([2]; first compound 0.1 µM) | relative viability ([2]; first compound 0.3162 µM) | relative viability ([2]; first compound 1 µM) | relative viability ([3]; first compound 0.01 µM) | relative viability ([3]; first compound 0.1 µM) | relative viability ([3]; first compound 0.3162 µM) | relative viability ([3]; first compound 1 µM) | relative viability ([4]; first compound 0.01 µM) | relative viability ([4]; first compound 0.1 µM) | relative viability ([4]; first compound 0.3162 µM) | relative viability ([4]; first compound 1 µM) | relative viability ([5]; first compound 0.01 µM) | relative viability ([5]; first compound 0.1 µM) | relative viability ([5]; first compound 0.3162 µM) | relative viability ([5]; first compound 1 µM)
1 | H3255 | 0.552 | 0.542 | 0.597 | 0.509 | 0.999 | 1.05 | 1.06 | 1.08 | 0.206 | 0.258 | 0.215 | 0.271 | 0.755 | 1.09 | 0.92 | 1.03 | 0.804 | 0.535 | 0.64 | 0.797
2 | NCI-H661 | 0.847 | 0.879 | 0.73 | 0.646 | 0.724 | 0.575 | 0.656 | 0.546 | 0.575 | 0.494 | 0.501 | 0.594 | 0.835 | 0.818 | 0.734 | 0.769 | 0.371 | 0.359 | 0.355 | 0.37
3 | NCI-H2085 | 0.756 | 0.82 | 0.725 | 0.76 | 0.797 | 0.903 | 0.867 | 0.865 | 0.767 | 0.727 | 0.718 | 0.774 | 1.08 | 1.02 | 1.01 | 0.922 | 0.758 | 0.829 | 0.868 | 0.801
4 | NCI-H2347 | 0.55 | 0.619 | 0.451 | 0.551 | 0.976 | 0.987 | 1.07 | 0.977 | 0.981 | 1.01 | 1.08 | 0.913 | 1.09 | 1.11 | 0.848 | 1.23 | 0.546 | 0.504 | 0.594 | 0.558
5 | NCI-H647 | 0.723 | 0.597 | 0.488 | 0.47 | 1.01 | 1.37 | 1.51 | 1.32 | 1.16 | 1.17 | 1.35 | 0.88 | 1.06 | 0.829 | 1.05 | 1.03 | 0.407 | 0.323 | 0.247 | 0.193
6 | NCI-H596 | 0.547 | 0.728 | 0.709 | 0.605 | 1.04 | 0.887 | 1.16 | 1.06 | 1.19 | 1.02 | 1.15 | 0.98 | 1.06 | 1.01 | 0.948 | 1.29 | 0.79 | 0.83 | 0.914 | 0.732
7 | EKVX | 0.922 | 0.907 | 0.889 | 0.798 | 1.04 | 0.962 | 1.29 | 1.09 | 0.18 | 0.202 | 0.214 | 0.19 | 0.995 | 1.81 | 1.28 | 1.18 | 0.387 | 0.327 | 0.402 | 0.414
8 | EPLC-272H | 0.553 | 0.63 | 0.57 | 0.586 | 1.18 | 1.32 | 1.2 | 1.17 | 0.869 | 1.2 | 1.08 | 1.22 | 0.76 | 0.923 | 0.957 | 0.923 | 0.226 | 0.215 | 0.249 | 0.191
